Test results: patent US12577206B2 (BRISTOL-MYERS SQUIBB COMPANY, priority 2020, dated 2026)

Tests used:
human FPR1 = biological target: T1, human FPR1 (Homo sapiens, UniProt P21462); assay: FPR1 cyclic adenosine monophosphate (cAMP) assay; assay type: cell-based; conditions: CHO cells overexpressing human FPR1; forskolin 10 μM; inhibition of cAMP production; HTRF; read-out: hFPR1 cAMP2 EC50
T1 sequence (P21462 1-350): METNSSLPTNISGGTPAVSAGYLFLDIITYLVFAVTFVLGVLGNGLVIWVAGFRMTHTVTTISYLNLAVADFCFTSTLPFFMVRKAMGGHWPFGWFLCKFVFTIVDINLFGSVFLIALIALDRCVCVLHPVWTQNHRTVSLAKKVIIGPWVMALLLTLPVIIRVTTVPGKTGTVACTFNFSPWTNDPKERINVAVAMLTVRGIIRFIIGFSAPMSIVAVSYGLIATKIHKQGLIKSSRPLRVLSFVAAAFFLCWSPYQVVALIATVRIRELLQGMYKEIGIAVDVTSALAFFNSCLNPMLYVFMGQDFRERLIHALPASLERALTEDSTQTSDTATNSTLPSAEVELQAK
In short: (§1)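 CHO/hFPR1 4,000 cells/well, forskolin 10 μM final; CHO/hFPR2 2,000 cells/well, forskolin 5 μM final. IBMX 200 μM, DMSO 1%, DPBS + Ca/Mg + 0.1% BSA, 30 min rt. HTRF cAMP; 4-PL fit.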

human FPR2 = biological target: T2, human FPR2 (Homo sapiens, UniProt P25090); assay: FPR2 cyclic adenosine monophosphate (cAMP) assay; assay type: cell-based; conditions: CHO cells overexpressing human FPR2; forskolin 5 μM; inhibition of cAMP production; HTRF; read-out: hFPR2 cAMP2 EC50
T2 sequence (P25090 1-351): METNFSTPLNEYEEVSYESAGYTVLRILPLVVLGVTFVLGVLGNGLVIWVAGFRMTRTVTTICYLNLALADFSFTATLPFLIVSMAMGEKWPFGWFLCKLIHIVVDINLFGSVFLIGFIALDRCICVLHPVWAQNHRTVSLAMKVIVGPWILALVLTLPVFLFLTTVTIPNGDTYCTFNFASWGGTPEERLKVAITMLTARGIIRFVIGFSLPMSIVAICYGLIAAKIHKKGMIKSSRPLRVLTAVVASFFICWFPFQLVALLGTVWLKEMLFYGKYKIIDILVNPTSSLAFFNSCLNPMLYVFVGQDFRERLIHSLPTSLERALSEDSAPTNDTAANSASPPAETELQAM
In short: as §1

| EC50 (human FPR1) | EC50 (human FPR2) | SMILES |
| --- | --- | --- |
| > 5000 nM | 1 nM | COc1cc(F)c(-c2c(NC(=O)c3ccc(OC(F)F)cc3)c(=O)n(-c3nc(N[C@@H](C)CO)ccc3C(F)(F)F)n2C)c(F)c1 [Example 237, N-[5-(2,6-difluoro-4-methoxyphenyl)-2-(6-{[(2S)-1-hydroxypropan-2-yl]amino}-3-(trifluoromethyl)pyridin-2-yl)-1-methyl-3-oxo-2,3-dihydro-1H-pyrazol-4-yl]-4-(difluoromethoxy)benzamide] |
| 2100 nM | 62 nM | COc1cc(N2CCOCC2)nc(-n2c(=O)c(NC(=O)c3ccc(OC(F)F)cc3)c(-c3c(F)cc(OC)cc3F)n2C)c1 [Example 364, N-(5-(2,6-Difluoro-4-methoxyphenyl)-2-(4-methoxy-6-morpholinopyridin-2-yl)-1-methyl-3-oxo-2,3-dihydro-1H-pyrazol-4-yl)-4-(difluoromethoxy)benzamide] |
| > 10000 nM | 2 nM | COc1cc(C2CCCN(C)C2)nc(-n2c(=O)c(NC(=O)c3ccc(OC(F)F)cc3)c(-c3c(F)cc(OC)cc3F)n2C)c1 (stereo not drawn) [Example 342, N-(5-(2,6-Difluoro-4-methoxyphenyl)-2-(4-methoxy-6-(1-methylpiperidin-3-yl)pyridin-2-yl)-1-methyl-3-oxo-2,3-dihydro-1H-pyrazol-4-yl)-4-(difluoromethoxy)benzamide] |
| 2100 nM | 2 nM | COc1cc(F)c(-c2c(NC(=O)c3ccc(OC(F)F)cc3)c(=O)n(-c3nc(N4CCC(C)(O)C4)ccc3C(F)(F)F)n2C)c(F)c1 (stereo not drawn) [Example 282, N-[5-(2,6-difluoro-4-methoxyphenyl)-2-[6-(3-hydroxy-3-methylpyrrolidin-1-yl)-3-(trifluoromethyl)pyridin-2-yl]-1-methyl-3-oxo-2,3-dihydro-1H-pyrazol-4-yl]-4-(difluoromethoxy)benzamide] |
| 1700 nM | 6 nM | COc1cc(F)c(-c2c(NC(=O)c3ccc(OC(F)(F)F)cc3)c(=O)n(-c3cccc(Cl)c3Cl)n2C)c(F)c1 [Example 35, N-[2-(2,3-dichlorophenyl)-5-(2,6-difluoro-4-methoxyphenyl)-1-methyl-3-oxo-2,3-dihydro-1H-pyrazol-4-yl]-4-(trifluoromethoxy)benzamide] |
| > 10000 nM | 1 nM | COc1cc(F)c(-c2c(NC(=O)c3ccc(OC(F)F)cc3)c(=O)n(-c3nc(NC[C@H](C)O)ccc3C(F)(F)F)n2C)c(F)c1 [Example 272, N-[5-(2,6-difluoro-4-methoxyphenyl)-2-(6-{[(2S)-2-hydroxypropyl]amino}-3-(trifluoromethyl)pyridin-2-yl)-1-methyl-3-oxo-2,3-dihydro-1H-pyrazol-4-yl]-4-(difluoromethoxy)benzamide] |
| > 10000 nM | 2 nM | COc1cc(F)c(-c2c(NC(=O)c3ccc(OC(F)F)cc3)c(=O)n(-c3nc(N[C@H]4CCOC4)ccc3C(F)(F)F)n2C)c(F)c1 [Example 255] |
| > 10000 nM | 4 nM | COc1cc(C2CCCNC2)nc(-n2c(=O)c(NC(=O)c3ccc(OC(F)F)cc3)c(-c3c(F)cc(OC)cc3F)n2C)c1 (stereo not drawn) [Example 347, N-(5-(2,6-Difluoro-4-methoxyphenyl)-2-(4-methoxy-6-(piperidin-3-yl)pyridin-2-yl)-1-methyl-3-oxo-2,3-dihydro-1H-pyrazol-4-yl)-4-(difluoromethoxy)benzamide] |
| 2500 nM | 32 nM | COc1cc(F)c(-c2c(NC(=O)c3ccc(OC(F)F)cc3)c(=O)n(-c3nc(N4CCN(C)CC4)ccc3C#N)n2C)c(F)c1 [Example 202, N-{2-[3-cyano-6-(4-methylpiperazin-1-yl)pyridin-2-yl]-5-(2,6-difluoro-4-methoxyphenyl)-1-methyl-3-oxo-2,3-dihydro-1H-pyrazol-4-yl}-4-(difluoromethoxy)benzamide] |
| 500 nM | 18 nM | Cn1c(-c2ccc(OC(F)F)cc2)c(NC(=O)c2ccc(OC(F)F)cc2)c(=O)n1-c1ncccc1C(F)(F)F [Example 281, 4-(difluoromethoxy)-N-{5-[4-(difluoromethoxy)phenyl]-1-methyl-3-oxo-2-[3-(trifluoromethyl)pyridin-2-yl]-2,3-dihydro-1H-pyrazol-4-yl}benzamide] |
| > 10000 nM | 1 nM | COc1cc(F)c(-c2c(NC(=O)c3ccc(OC(F)F)cc3)c(=O)n(-c3cc(C)cc(C4CCN(C)CC4)n3)n2C)c(F)c1 [Example 361] |
| 1500 nM | 4 nM | COc1cc(F)c(-c2c(NC(=O)c3ccc(OC(F)F)cc3)c(=O)n(-c3cc(F)cc(C(C)(C)O)c3)n2C)c(F)c1 [Example 148, N-[5-(2,6-difluoro-4-methoxyphenyl)-2-[3-fluoro-5-(2-hydroxypropan-2-yl)phenyl]-1-methyl-3-oxo-2,3-dihydro-1H-pyrazol-4-yl]-4-(difluoromethoxy)benzamide] |

Second part, the molecule before the results:

| SMILES | EC50 (human FPR1) | EC50 (human FPR2) |
| --- | --- | --- |
| COc1cc(F)c(-c2c(NC(=O)c3ccc(OC(F)F)cc3)c(=O)n(-c3cncc(Cl)c3)n2C)c(F)c1 [Example 130, N-[2-(5-chloropyridin-3-yl)-5-(2,6-difluoro-4-methoxyphenyl)-1-methyl-3-oxo-2,3-dihydro-1H-pyrazol-4-yl]-4-(difluoromethoxy)benzamide] | 1900 nM | 20 nM |
| COc1cc(F)c(-c2c(NC(=O)c3ccc(OC(F)F)cc3)c(=O)n(-c3cc(CO)cc(OCCO)n3)n2C)c(F)c1 [Example 336, N-(5-(2,6-Difluoro-4-methoxyphenyl)-2-(6-(2-hydroxyethoxy)-4-(hydroxymethyl)pyridin-2-yl)-1-methyl-3-oxo-2,3-dihydro-1H-pyrazol-4-yl)-4-(difluoromethoxy)benzamide] | > 10000 nM | 24 nM |
| CCOC(=O)Cn1c(=O)c(NC(=O)c2ccc(OC(F)F)cc2)c(-c2c(F)cc(OC)cc2F)n1C [Example 21, ethyl 2-[3-(2,6-difluoro-4-methoxyphenyl)-4-[4-(difluoromethoxy)benzamido]-2-methyl-5-oxo-2,5-dihydro-1H-pyrazol-1-yl]acetate] | > 10000 nM | 140 nM |
| COc1cc(F)c(-c2c(NC(=O)c3ccc(OC(F)F)cc3)c(=O)n(-c3nc(N4CCN(C)C(=O)C4)ccc3C(F)(F)F)n2C)c(F)c1 [Example 220, N-[5-(2,6-difluoro-4-methoxyphenyl)-1-methyl-2-[6-(4-methyl-3-oxopiperazin-1-yl)-3-(trifluoromethyl)pyridin-2-yl]-3-oxo-2,3-dihydro-1H-pyrazol-4-yl]-4-(difluoromethoxy)benzamide] | 560 nM | 2 nM |
| COc1cc(F)c(-c2c(NC(=O)c3ccc(OC(F)F)cc3)c(=O)n(-c3ncccc3N(C)C)n2C)c(F)c1 [Example 142, N-[5-(2,6-difluoro-4-methoxyphenyl)-2-[3-(dimethylamino)pyridin-2-yl]-1-methyl-3-oxo-2,3-dihydro-1H-pyrazol-4-yl]-4-(difluoromethoxy)benzamide] | 3100 nM | 17 nM |
| COc1cc(F)c(-c2c(NC(=O)c3ccc(OC(F)F)cc3)c(=O)n(-c3nc(Cl)ccc3Cl)n2C)c(F)c1 [Example 242, N-[2-(3,6-dichloropyridin-2-yl)-5-(2,6-difluoro-4-methoxyphenyl)-1-methyl-3-oxo-2,3-dihydro-1H-pyrazol-4-yl]-4-(difluoromethoxy)benzamide] | > 10000 nM | 20 nM |
| COc1cc(N2C[C@@H](C)N(C)[C@@H](C)C2)nc(-n2c(=O)c(NC(=O)c3ccc(OC(F)F)cc3)c(-c3c(F)cc(OC)cc3F)n2C)c1 [Example 93, N-[5-(2,6-difluoro-4-methoxyphenyl)-2-{4-methoxy-6-[(3R,5S)-3,4,5-trimethylpiperazin-1-yl]pyridin-2-yl}-1-methyl-3-oxo-2,3-dihydro-1H-pyrazol-4-yl]-4-(difluoromethoxy)benzamide] | 1800 nM | 2 nM |
| COc1cc(F)c(-c2c(NC(=O)c3ccc(OC(F)F)cc3)c(=O)n(-c3nc(C4CCN(S(C)(=O)=O)CC4)ccc3Cl)n2C)c(F)c1 [Example 316, N-{2-[3-chloro-6-(1-methanesulfonylpiperidin-4-yl)pyridin-2-yl]-5-(2,6-difluoro-4-methoxyphenyl)-1-methyl-3-oxo-2,3-dihydro-1H-pyrazol-4-yl}-4-(difluoromethoxy)benzamide] | > 5000 nM | 2 nM |
| COc1cc(F)c(-c2c(NC(=O)c3ccc(OC(F)F)cc3)c(=O)n(-c3cccc(C(F)F)n3)n2C)c(F)c1 [Example 67, N-[5-(2,6-difluoro-4-methoxyphenyl)-2-[6-(difluoromethyl)pyridin-2-yl]-1-methyl-3-oxo-2,3-dihydro-1H-pyrazol-4-yl]-4-(difluoromethoxy)benzamide] | 3400 nM | 9 nM |
